From US12415939B2, “Nano-adhesive and surface primer compound and use thereof” (The Regents of the University of California, priority 2015, dated 2025)

Experiment: AFM adhesion force runs with silica probe on Z-Cat-C10 coated silicon wafer
Assay type: physicochemical
Experimental: AFM force runs were measured with and without Z-Cat-C10 on silicon wafer and copper plate, respectively, vs. silicon dioxide probe. Underwater force run was conducted for the surface prepared subsequently after spreading the 5 mM Z-Cat-C10, waiting for 2 min, rinsing thoroughly with degassed DI water thoroughly for 3 times. Dry force run was performed after ˜5 min dry of the surface prepared as for the underwater force run. […] Cantilever spring constant (K) for #=10 μm silica tip on silicon wafer and copper plate with Z-Cat-C10, was 0.1 N m^−1.
The measured adhesion, Fa, force (minimum of the potential well of the F vs. D curves obtained from AFM measurements) is related to the adhesion energy per unit area by Wa=Fa/2πR for rigid surfaces with weak adhesive interactions, and by Wa=Fa/1.5πR (used in this study) for soft deformable surfaces with strong adhesion or cohesion. Since copper surface (RMS˜2 nm) is rougher than silicon wafer (RMS<1 nm), the Wa on copper surface was comparatively weaker than the Wa of silicon wafer. Hydroxide/oxide on copper surface also weakens the adhesion to copper plate compared to just oxide on silicon wafer (see FIGS. 18-23). […]
The adhesion/cohesion energy of the synthetic zwitterionic molecules was investigated in SFA (SurForce LLC, Santa Barbara, CA). Two molecularly smooth freshly cleaved back silvered mica surfaces glued on cylindrical silica discs of radius of curvature, R˜2 cm, were mounted in the SFA and 50 μL of a colloidal dispersion of the synthetic molecules in DI water were injected between the surfaces at different concentrations (C=0.5-5 mM) and the forces between the thin films of the molecules were measured by Multiple Beam Interferometry (MBI). The adhesion forces between Z-Cat-C10 molecules on various surfaces, e.g., silica and copper, were also measured by AFM (MFP-3D, Asylum research, Goleta, CA) in DI water and ambient conditions, respectively, at room temperature. […] Cantilever spring constants were measured for each force run. […]

Structure (SMILES): CN(C)CCOP(=O)(O)OCCCc1ccc(O)c(O)c1 [Z-Cat-C10]
- dry Wad relative to catecholic polysiloxane (SiO2 and SiO2 surfaces): 50 fold
- adhesion Wad after air-drying (air-dried ~5 min, SiO2 and SiO2 surfaces): ~175 mJ m^−2
- wet work of adhesion Wad (underwater, SiO2 and SiO2 interface, 5 mM coating): ~7.7 mJ m^−2
